Our source for the Papp values is ChEMBL document CHEMBL4024798.

SMILES strings stand for the structures.

Data set [1] in a line: Apparent permeability from apical to basolateral side in human Caco2 cells at 2 uM after 2 hrs by LC-MS/MS analysis. Type of data set: ADME, cell-based. The settings on record: caco-2, 2 h. (Passage across Caco-2 layers is used to estimate intestinal permeability.)
Data set [2] in a line: Apparent permeability from basolateral to apical side in human Caco2 cells at 2 uM after 2 hrs by LC-MS/MS analysis. It is filed as ADME, cell-based. The settings on record: caco-2, 2 h.

As a reminder, the Papp is the rate of passage across a membrane or cell layer, normalised by area and donor concentration. Turning to `OC12CC3CC(C1)CC(NCc1cc(C4CC4)on1)(C3)C2`, the Papp amounted to 27.57 ×10⁻⁶ cm/s in data set [1] and 28.33 ×10⁻⁶ cm/s in data set [2].
